Assay: Biological test of toxicity (lethal dose)
Type: in vivo
Conditions: biologischer Test
Description: Weiterhin ließ sich nachweisen, daß in dem Präparat Ukrain (hier erfolgte die Umsetzung der Alkaloide von Chelidonium majus L. mit Thiophosphorsäuretriaziridid, gen. Thio-TEPA) keine freien Äthylengruppen des Thio-TEPA vorliegen. Dieser Nachweis wurde erbracht: • 1. durch eine chemische Analyse und • 2. dadurch, daß beim biologischen Test die Dosis letalis für Thio-TEPA bei 1 mg/kg Körpergewicht liegt, für das Präparat jedoch eine Dosis von 250 mg/kg Körpergewicht nicht toxisch ist.

With S=P(N1CC1)(N1CC1)N1CC1 [Thio-TEPA, Thiophosphorsäuretriaziridid] as the compound, how does the Dosis letalis read?
Its Dosis letalis is 1 mg/kg Körpergewicht.

Reference: patent EP0083600B1, “Use of alkaloid derivatives for the manufacture of a medicament for the strengthening of the immune system and for the treatment of viral, bacterial and fungal infections” (Nowicky, Wassyl, priority 1981, dated 1983)
